The text below walks through data of ChEMBL document CHEMBL1128985, “Mechanism-based inactivation of -chymotrypsin” (Bioorg Med Chem Lett, 1996).

Test [1] concerns the target Chymotrypsinogen A (Bos taurus) (UniProt P00766). The experiment in a line: Irreversible inhibitory activity against alpha-chymotrypsin; No inhibition.
The target in test [2] is T1, Chymotrypsin-like elastase family member 2A (Sus scrofa) (UniProt P08419).
T1 sequence (whole entry): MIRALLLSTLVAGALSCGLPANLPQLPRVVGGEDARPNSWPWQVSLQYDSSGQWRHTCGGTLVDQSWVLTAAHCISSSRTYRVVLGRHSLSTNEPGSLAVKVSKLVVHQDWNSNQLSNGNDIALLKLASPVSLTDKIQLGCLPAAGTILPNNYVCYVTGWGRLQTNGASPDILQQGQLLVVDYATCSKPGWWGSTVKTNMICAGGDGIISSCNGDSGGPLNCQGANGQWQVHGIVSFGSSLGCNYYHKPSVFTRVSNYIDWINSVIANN
The experiment in a line: Irreversible inhibitory activity against porcine pancreatic elastase at concentration 4.8 uM; No irreversible inhibitory activity.

Test [3] addresses Chymotrypsinogen A (Bos taurus) (UniProt P00766). The experiment in a line: Irreversible inhibitory activity against alpha-chymotrypsin; Inhibition observed.

Each structure is given as a SMILES string. Where only a bound is given, the exact number is not on record here.

Take `O=C(O)CCC(=O)N[C@@H](Cc1ccccc1)C(=O)OC1CC1(Cl)Cl` (some centres undefined): in test [1], the Activity was under 1 mM. Regarding `O=C(O)CCC(=O)N[C@@H](Cc1ccccc1)C(=O)NC1CC1(Cl)Cl` (some centres undefined), the Activity in test [1] amounted to 14.5 mM. For the molecule `CC(NC(=O)C(C)NC(=O)CCC(=O)N[C@@H](Cc1ccccc1)C(=O)OC1CC1(Cl)Cl)C(=O)O` (some centres undefined), the Activity was 1.2 mM in test [2] and 500 µM in test [3].
